Laboratory results taken from ChEMBL document CHEMBL5505983, “Design, synthesis, and molecular modeling studies of novel 2-quinolone-1,2,3-triazole-α-aminophosphonates hybrids as dual antiviral and antibacterial agents” (Eur J Med Chem, 2024).
In brackets after ≈: the same amount, converted by molar mass.

Columns and labels:
[1] = system: Staphylococcus aureus; experiment: Ratio of MBC to MIC for Staphylococcus aureus CIP 54127; assay type: functional
[2] = system: Enterococcus faecalis; experiment: Bactericidal activity against Enterococcus faecalis; assay type: functional
[3] = system: Yellow fever virus; experiment: Antiviral activity against Yellow fever virus infected in human Huh-7 cells assessed as inhibition of cytopathic effect by microscopy based analysis; assay type: functional, organism-based
[4] = Cytotoxicity against African green monkey Vero E6 cells; assay type: toxicity, cell-based, Vero C1008; settings: chlorocebus sabaeus
[5] = Selectivity index, ratio of CC50 for African green monkey Vero A cells to IC50 for CHIKV infected in African green monkey Vero A cells; assay type: toxicity; settings: read-out: Ratio CC50/IC50
[6] = system: Human rhinovirus sp.; experiment: Antiviral activity against Human rhinovirus A2 infected in human HeLa-RH cells assessed as inhibition of cytopathic effect by microscopy based analysis; assay type: functional, organism-based
[7] = system: Enterococcus faecalis; experiment: Ratio of MBC to MIC for Enterococcus faecalis; assay type: functional
[8] = system: Pseudomonas aeruginosa; experiment: Antibacterial activity against Pseudomonas aeruginosa CIP A22 assessed as reduction in bacterial growth by micro-broth dilution method; assay type: functional
[9] = system: Escherichia coli; experiment: Bactericidal activity against Escherichia coli CIP 53154; assay type: functional
[10] = system: Pseudomonas aeruginosa; experiment: Ratio of MBC to MIC for Pseudomonas aeruginosa CIP A22; assay type: functional
[11] = system: Human rhinovirus sp.; experiment: Antiviral activity against Human rhinovirus B14 infected in human HeLa-RH cells assessed as inhibition of cytopathic effect by microscopy based analysis; assay type: functional, organism-based
[12] = system: Chikungunya virus; experiment: Antiviral activity against CHIKV infected in African green monkey Vero A cells assessed as inhibition of cytopathic effect by microscopy based analysis; assay type: functional, organism-based
[13] = Cytotoxicity against African green monkey Vero A cells; assay type: toxicity, cell-based; settings: chlorocebus sabaeus
[14] = system: Escherichia coli; experiment: Ratio of MBC to MIC for Escherichia coli CIP 53154; assay type: functional
[15] = system: Enterococcus faecalis; experiment: Antibacterial activity against Enterococcus faecalis assessed as reduction in bacterial growth by micro-broth dilution method; assay type: functional
[16] = Cytotoxicity against human RD cells; assay type: toxicity, cell-based
[17] = system: Staphylococcus aureus; experiment: Antibacterial activity against Staphylococcus aureus CIP 54127 assessed as reduction in bacterial growth by micro-broth dilution method; assay type: functional
[18] = system: Escherichia coli; experiment: Antibacterial activity against Escherichia coli CIP 53154 assessed as reduction in bacterial growth by micro-broth dilution method; assay type: functional
[19] = Selectivity index, ratio of CC50 for human HeLa-RH cells to IC50 for Human rhinovirus B14 infected in human HeLa-RH cells; assay type: toxicity, cell-based; settings: read-out: Ratio CC50/IC50
[20] = system: Staphylococcus aureus; experiment: Bactericidal activity against Staphylococcus aureus CIP 54127; assay type: functional
[21] = system: Zika virus; experiment: Antiviral activity against Zika virus infected in african green monkey Vero E6 cells assessed as inhibition of cytopathic effect by microscopy based analysis; assay type: functional, organism-based; settings: Vero C1008
[22] = system: Enterovirus A71; experiment: Antiviral activity against human EV71 infected in human RD cells assessed as inhibition of cytopathic effect by microscopy based analysis; assay type: functional, organism-based; settings: Enterovirus A
[23] = Cytotoxicity against human Huh-7 cells; assay type: toxicity, cell-based
[24] = Cytotoxicity against human HeLa-RH cells; assay type: toxicity, cell-based
[25] = system: Pseudomonas aeruginosa; experiment: Bactericidal activity against Pseudomonas aeruginosa CIP A22; assay type: functional
[26] = Selectivity index, ratio of CC50 for human RD cells to IC50 for human EV71 infected in human RD cells; assay type: toxicity, cell-based; settings: read-out: Ratio CC50/IC50
[27] = Selectivity index, ratio of CC50 for human Huh-7 cells to IC50 for Yellow fever virus infected in human Huh-7 cells; assay type: toxicity, cell-based; settings: read-out: Ratio CC50/IC50

| Structure (SMILES) | Ratio [1] | MBC [2] [µM] | IC50 [3] [µM] | CC50 [4] [µM] | IC50 [6] [µM] | Ratio [7] | MIC [8] [µM] | MBC [9] [µM] | Ratio [10] | IC50 [11] [µM] | IC50 [12] [µM] | CC50 [13] [µM] | Ratio [14] | MIC [15] [µM] | CC50 [16] [µM] | MIC [17] [µM] | MIC [18] [µM] | MBC [20] [µM] | IC50 [21] [µM] | IC50 [22] [µM] | also measured |
| --- | --- | --- | --- | --- | --- | --- | --- | --- | --- | --- | --- | --- | --- | --- | --- | --- | --- | --- | --- | --- | --- |
| CCOP(=O)(OCC)C(Nc1ccc(C)cc1)c1cc(Cn2cc(Cn3c(=O)cc(C)c4cc(Br)ccc43)nn2)ccc1O (stereo unspecified) | 1 | 60 (≈ 40.8 µg/mL) | > 100 | > 33.3 | > 0.41 | 1 | 1840 (≈ 1250 µg/mL) | 930 (≈ 633 µg/mL) | 4 | 10.7 | 56.1 | > 100 | 2.02 | 60 (≈ 40.8 µg/mL) | > 100 | 460 (≈ 313 µg/mL) | 460 (≈ 313 µg/mL) | 460 (≈ 313 µg/mL) | > 100 | > 100 | selectivity ratio [5]: > 1.78; selectivity ratio [19]: 2.73; CC50 [23]: 20 µM; CC50 [24]: 29.1 µM; MBC [25]: 1840 µM (≈ 1250 µg/mL) |
| Cc1cc(=O)n(Cc2cn(Cc3ccc(O)c(C=O)c3)nn2)c2ccc(F)cc12 | 1 | 400 (≈ 157 µg/mL) | > 100 | 55 | > 1.23 | 2 | 3190 (≈ 1250 µg/mL) | 6370 (≈ 2500 µg/mL) | 2.01 | > 100 | > 100 | > 100 | 1 | 200 (≈ 78.5 µg/mL) | 43 | 3190 (≈ 1250 µg/mL) | 6370 (≈ 2500 µg/mL) | 3190 (≈ 1250 µg/mL) | > 100 | 29.9 | selectivity ratio [26]: 1.44; CC50 [23]: 27.8 µM; CC50 [24]: 14.5 µM; MBC [25]: 3190 µM (≈ 1250 µg/mL) |
| CCOP(=O)(OCC)C(Nc1ccc(F)cc1)c1cc(Cn2cc(Cn3c(=O)cc(C)c4ccccc43)nn2)ccc1O (stereo unspecified) | 1.96 | 70 (≈ 42.4 µg/mL) | > 100 | > 100 | > 3.7 | 1 | 2060 (≈ 1250 µg/mL) | 1040 (≈ 630 µg/mL) | 1.98 | > 100 | 26.6 | 75.2 | 2.04 | 70 (≈ 42.4 µg/mL) | 75.8 | 260 (≈ 157 µg/mL) | 510 (≈ 309 µg/mL) | 510 (≈ 309 µg/mL) | > 100 | > 100 | selectivity ratio [5]: 2.83; CC50 [23]: 31.4 µM; CC50 [24]: 83.8 µM; MBC [25]: 2060 µM (≈ 1250 µg/mL) |
| CCOP(=O)(OCC)C(Nc1ccccc1)c1cc(Cn2cc(Cn3c(=O)cc(C)c4ccccc43)nn2)ccc1O (stereo unspecified) | 2.02 | 270 (≈ 159 µg/mL) | > 100 | > 100 | > 3.7 | 1 | 2130 (≈ 1250 µg/mL) | 530 (≈ 311 µg/mL) | 1 | > 100 | 56.9 | > 100 | 1.96 | 270 (≈ 159 µg/mL) | > 100 | 530 (≈ 311 µg/mL) | 270 (≈ 159 µg/mL) | 1070 (≈ 629 µg/mL) | > 100 | > 100 | selectivity ratio [5]: > 1.76; CC50 [23]: 51.1 µM; CC50 [24]: > 100 µM; MBC [25]: 2130 µM (≈ 1250 µg/mL) |
| CCOP(=O)(OCC)C(Nc1ccc(I)cc1)c1cc(Cn2cc(Cn3c(=O)cc(C)c4cc(F)ccc43)nn2)ccc1O (stereo unspecified) | 2 | 50 (≈ 36.6 µg/mL) | > 33.3 | > 100 | > 33.3 | 1 | 1710 (≈ 1250 µg/mL) | 1710 (≈ 1250 µg/mL) | 1 | 10.9 | 33 | > 100 | 1.99 | 50 (≈ 36.6 µg/mL) | > 100 | 110 (≈ 80.5 µg/mL) | 860 (≈ 629 µg/mL) | 220 (≈ 161 µg/mL) | > 100 | > 100 | selectivity ratio [5]: > 3.03; selectivity ratio [19]: > 3.06; CC50 [23]: 12.1 µM; CC50 [24]: > 33.3 µM; MBC [25]: 1710 µM (≈ 1250 µg/mL) |
| CCOP(=O)(OCC)C(Nc1ccccc1Cl)c1cc(Cn2cc(Cn3c(=O)cc(C)c4cc(F)ccc43)nn2)ccc1O (stereo unspecified) | 2 | 30 (≈ 19.2 µg/mL) | 10.3 | 28.1 | > 0.41 | 1 | 4030 (≈ 2580 µg/mL) | 4030 (≈ 2580 µg/mL) | 1 | > 100 | > 100 | 7 | 2 | 30 (≈ 19.2 µg/mL) | > 100 | 130 (≈ 83.2 µg/mL) | 2020 (≈ 1290 µg/mL) | 260 (≈ 166 µg/mL) | > 100 | > 100 | selectivity ratio [27]: 3.01; CC50 [23]: 31 µM; CC50 [24]: 12.5 µM; MBC [25]: 4030 µM (≈ 2580 µg/mL) |
